Experiment [1] has as its target serotonin 2 receptor (Rattus norvegicus, UniProt P14842). The experiment in a line: Binding test on [3H] ketanserin (serotonin 2 receptor). The conditions noted are these: [3H] ketanserin 0.3 nM, receptor fraction of rat cerebral cortex; read-out: 5HT2.
In experiment [2] the target is T1, serotonin 1A receptor (Rattus norvegicus, UniProt P19327).
T1 construct: To the receptor fraction of the hippocampus were added a test compound and 0.5 nM of [^3H]; 8-hydroxy-dipropylaminotetralin; from tissue; host or cells: SD rat hippocampus, membrane (receptor) fraction
T1 sequence (P19327 1-422): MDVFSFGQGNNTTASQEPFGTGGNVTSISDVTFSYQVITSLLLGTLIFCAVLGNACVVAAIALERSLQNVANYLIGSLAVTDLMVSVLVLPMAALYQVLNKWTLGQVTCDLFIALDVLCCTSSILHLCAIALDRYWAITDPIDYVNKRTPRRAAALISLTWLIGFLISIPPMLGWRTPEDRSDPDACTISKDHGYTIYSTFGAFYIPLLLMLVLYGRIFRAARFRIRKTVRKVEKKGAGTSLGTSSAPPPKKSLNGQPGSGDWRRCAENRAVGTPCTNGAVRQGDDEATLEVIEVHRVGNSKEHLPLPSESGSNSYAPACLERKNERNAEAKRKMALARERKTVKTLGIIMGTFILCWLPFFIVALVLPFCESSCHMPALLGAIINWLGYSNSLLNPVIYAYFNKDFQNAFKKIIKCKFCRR
As to the kind of experiment: Binding test on [3H] 8-hydroxy-dipropylaminotetralin (serotonin 1A receptor). The conditions noted are these: [3H] 8-OH-DPAT 0.5 nM, receptor fraction of rat hippocampus; read-out: 5HT1a.

pKi: −log10 of the molar value.

serotonin 2 receptor, sequence (P14842 whole entry): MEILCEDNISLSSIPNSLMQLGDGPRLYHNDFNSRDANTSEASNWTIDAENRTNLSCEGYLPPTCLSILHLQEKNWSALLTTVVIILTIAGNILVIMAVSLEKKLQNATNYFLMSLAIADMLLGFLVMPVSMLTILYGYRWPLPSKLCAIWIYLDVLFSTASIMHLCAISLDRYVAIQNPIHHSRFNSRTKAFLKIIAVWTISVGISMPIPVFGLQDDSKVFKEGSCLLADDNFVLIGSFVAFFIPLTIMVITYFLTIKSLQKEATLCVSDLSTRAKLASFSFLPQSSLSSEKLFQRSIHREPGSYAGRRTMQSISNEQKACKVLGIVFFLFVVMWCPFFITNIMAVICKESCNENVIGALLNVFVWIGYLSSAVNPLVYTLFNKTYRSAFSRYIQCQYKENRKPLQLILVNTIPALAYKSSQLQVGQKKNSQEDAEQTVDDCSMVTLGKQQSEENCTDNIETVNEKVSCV

On to `CN(C)c1ccc(C(O)c2ccc3c(c2)N(C2CCN(CCc4ccc(F)cc4)CC2)CC3)cn1` (stereo not drawn) [Example 191, 1-[1-(4-fluorophenethyl)piperidin-4-yl]-6-[1-hydroxy-1-(2-dimethylaminopyridin-5-yl)methyl]indoline], for which the figures for the pKi in experiment [1] and in experiment [2] were 9.49 and 7.54, respectively.

`OC(c1ccc(Cl)nc1)c1ccc2c(c1)N(C1CCN(CCc3ccc(F)cc3)CC1)CC2` (stereo not drawn) [Example 192, 1-[1-(4-fluorophenethyl)piperidin-4-yl]-6-[1-hydroxy-1-(2-chloropyridin-5-yl)methyl]indoline]: the figures for the pKi in experiment [1] and in experiment [2] were 8.54 and 8.99, respectively.

As for `OC(c1ccc2c(c1)N(C1CCN(CCc3ccc(F)cc3)CC1)CC2)c1nccs1` (stereo not drawn) [Example 193, 1-[1-(4-fluorophenethyl)piperidin-4-yl]-6-[1-(2-thiazolyl)-1-hydroxymethyl]indoline], the pKi in experiment [1] was 8.54; in experiment [2], 8.16.

For `O=C(c1ccc2c(c1)N(C1CCN(CCc3ccc(F)cc3)CC1)CC2)c1nccs1` [Example 194, 1-[1-(4-fluorophenethyl)piperidin-4-yl]-6-(2-thiazolylcarbonyl)indoline], the pKi was < 6.70 in experiment [1] and 8.34 in experiment [2].

With `OC(c1ccc2c(c1)N(C1CCN(CCc3ccc(F)cc3)CC1)CC2)c1cscn1` (stereo not drawn) [Example 195, 1-[1-(4-fluorophenethyl)piperidin-4-yl]-6-[1-(4-thiazolyl)-1-hydroxymethyl]indoline], the pKi in experiment [1] is 8.94; in experiment [2], 8.24.

For the molecule `OC(c1ccc2c(c1)N(C1CCN(CCc3ccc(F)cc3)CC1)CC2)c1cncs1` (stereo not drawn) [Example 196, 1-[1-(4-fluorophenethyl)piperidin-4-yl]-6-[1-(5-thiazolyl)-1-hydroxymethyl]indoline], the pKi is 8.93 in experiment [1] and 8.78 in experiment [2].

On to `OC(c1cncnc1)c1ccc2c(c1)N(C1CCN(CCc3ccc(F)cc3)CC1)CC2` (stereo not drawn) [Example 198, 1-[1-(4-fluorophenethyl)piperidin-4-yl]-6-[1-hydroxy-1-(pyrimidin-5-yl)methyl]indoline], for which the pKi in experiment [1] is 8.66; in experiment [2], 7.86.

As for `OC(c1ccc2c(c1)N(C1CCN(CCc3ccc(F)cc3)CC1)CC2)c1ccc[nH]1` (stereo not drawn) [Example 199, 1-[1-(4-fluorophenethyl)piperidin-4-yl]-6-[1-hydroxy-1-(2-pyrrolyl)methyl]indoline], the results for the pKi in experiment [1] and in experiment [2] were 8.92 and 8.70, respectively.

For the molecule `CN(C)Cc1ccc2c(c1)N(C1CCN(CCc3ccc(F)cc3)CC1)CC2` [Example 200, 1-[1-(4-fluorophenethyl)piperidin-4-yl]-6-N,N-dimethylaminomethylindoline], the pKi in experiment [1] is 6.63; in experiment [2], 8.32.

For `Fc1ccc(CCN2CCC(N3CCc4ccc(-c5ccc(F)cc5)cc43)CC2)cc1` [Example 201, 1-[1-(4-fluorophenethyl)piperidin-4-yl]-6-(4-fluorophenyl)indoline], the pKi in experiment [1] was < 6.70; in experiment [2] it was 8.15.

As to `O=C1CCCN1Cc1ccc2c(c1)N(C1CCN(CCc3ccc(F)cc3)CC1)CC2` [Example 202, 1-[1-(4-fluorophenethyl)piperidin-4-yl]-6-(2-pyrrolidon-1-yl)methylindoline], the pKi was 8.29 in experiment [1] and 8.59 in experiment [2].

Regarding `O=C1CCCCN1Cc1ccc2c(c1)N(C1CCN(CCc3ccc(F)cc3)CC1)CC2` [Example 203, 1-[1-(4-fluorophenethyl)piperidin-4-yl]-6-(2-piperidon-1-yl)methylindole], the pKi in experiment [1] was 8.34; in experiment [2], 9.26.

In the case of `O=C1CCCC(=O)N1Cc1ccc2c(c1)N(C1CCN(CCc3ccc(F)cc3)CC1)CC2` [Example 205, 1-[1-(4-fluorophenethyl)piperidin-4-yl]-6-(glutarimido-1-yl)methylindoline], the pKi was 9.92 in experiment [1] and 8.56 in experiment [2].

`O=C1CNC(=O)N1Cc1ccc2c(c1)N(C1CCN(CCc3ccc(F)cc3)CC1)CC2` [Example 207, 1-[1-(4-fluorophenethyl)piperidin-4-yl]-6-(2,4-imidazolidinedion-3-yl)methylindoline]: the pKi in experiment [1] is 8.57; in experiment [2], 9.09.

Consider `O=C1OCCN1Cc1ccc2c(c1)N(C1CCN(CCc3ccc(F)cc3)CC1)CC2` [Example 208, 1-[1-(4-fluorophenethyl)piperidin-4-yl]-6-(2-oxazolidon-3-yl)methylindoline], for which the pKi was 8.98 in experiment [1] and 8.63 in experiment [2].

Consider `O=C1CSC(=O)N1Cc1ccc2c(c1)N(C1CCN(CCc3ccc(F)cc3)CC1)CC2` [Example 209, 1-[1-(4-fluorophenethyl)piperidin-4-yl]-6-(2,4-thiazolidinedion-3-yl)methylindoline], for which the values for the pKi in experiment [1] and in experiment [2] were 8.33 and 8.16, respectively.

On to `Fc1ccc(CCN2CCC(N3CCc4ccc(Cn5cccc5)cc43)CC2)cc1` [Example 210, 1-[1-(4-fluorophenethyl)piperidin-4-yl]-6-(pyrrol-1-yl)methylindoline], for which the pKi in experiment [1] was 8.31; in experiment [2], 8.60.

On to `Fc1ccc(CCN2CCC(N3CCc4ccc(Cn5ccnc5)cc43)CC2)cc1` [Example 211, 1-[1-(4-fluorophenethyl)piperidin-4-yl]-6-(imidazol-1-yl)methylindoline], for which the pKi in experiment [1] was 8.92; in experiment [2], 9.28.

For the molecule `Fc1ccc(CCN2CCC(N3CCc4ccc(Cn5cncn5)cc43)CC2)cc1` [Example 213, 1-[1-(4-fluorophenethyl)piperidin-4-yl]-6-(1,2,4-triazol-2-yl)methylindoline], the pKi in experiment [1] was 9.74; in experiment [2], 8.99.

In the case of `Fc1ccc(CCN2CCC(N3CCc4ccc(Cc5nccs5)cc43)CC2)cc1` [Example 214, 1-[1-(4-fluorophenethyl)-piperidin-4-yl]-6-(2-thiazolyl)methylindoline], the pKi is 9.05 in experiment [1] and 8.46 in experiment [2].

`COc1ccc(CC2CN(C3CCN(CCc4ccc(F)cc4)CC3)c3ccccc32)cc1` (stereo not drawn) [Example 215, 1-[1-(4-fluorophenethyl)piperidin-4-yl]-3-(4-methoxybenzyl)indoline]: the pKi is 9.00 in experiment [1] and 6.90 in experiment [2].

In the case of `CS(=O)(=O)Nc1cc2c(cc1Cl)CCN2C1CCN(CCc2ccc(F)cc2)CC1` [Example 218, 1-[1-(4-fluorophenethyl)piperidin-4-yl]-5-chloro-6-methanesulfonylaminoindoline], the results for the pKi in experiment [1] and in experiment [2] were 7.93 and 8.35, respectively.

Regarding `COc1cc2c(cc1Cl)CCN2C1CCN(CCc2ccc(F)cc2)CC1` [Example 219, 1-[1-(4-fluorophenethyl)piperidin-4-yl]-5-chloro-6-methoxyindoline], the pKi in experiment [1] was 7.51; in experiment [2], 7.71.

Consider `CS(=O)(=O)Nc1ccc2c(c1)N(C1CCN(CCc3ccc(F)cc3F)CC1)CC2` [Example 221, 1-[1-(2,4-difluorophenethyl)piperidin-4-yl]-6-methanesulfonylaminoindoline], for which the pKi in experiment [1] was 8.62; in experiment [2], 8.72.

`CC(=O)Nc1ccc2c(c1)N(C1CCN(CCc3ccc(F)cc3F)CC1)CC2` [Example 222, 1-[1-(2,4-difluorophenethyl)piperidin-4-yl]-6-acetamidoindoline]: the pKi in experiment [1] was 7.74; in experiment [2], 10.40.

On to `CC(=O)NCc1ccc2c(c1)N(C1CCN(CCc3ccc(F)cc3F)CC1)CC2` [Example 224, 1-[1-(2,4-difluorophenethyl)piperidin-4-yl]-6-acetamidomethylindoline], for which the pKi in experiment [1] was 8.29; in experiment [2], 8.51.

Regarding `NC(=O)Cc1ccc2c(c1)N(C1CCN(CCc3ccc(F)cc3F)CC1)CC2` [Example 225, 1-[1-(2,4-difluorophenethyl)piperidin-4-yl]-6-carbamoylmethylindoline], the pKi in experiment [1] is 8.12; in experiment [2] it was 8.24.

On to `COc1ccc(CCN2CCC(N3CCc4ccc(OC)cc43)CC2)cc1` [Example 228, 1-[1-(4-methoxyphenethyl)piperidin-4-yl]-6-methoxyindoline], for which the results for the pKi in experiment [1] and in experiment [2] were < 6.70 and 9.47, respectively.

With `COc1ccc(CCN2CCC(N3CCc4ccc(F)cc43)CC2)cc1` [Example 229, 1-[1-(4-methoxyphenethyl)piperidin-4-yl]-6-fluoroindoline], the pKi was < 6.70 in experiment [1] and 8.60 in experiment [2].

Consider `COc1ccc2c(c1)N(C1CCN(CCc3ccc(S(N)(=O)=O)cc3)CC1)CC2` [Example 230, 1-[1-(4-sulfamoylphenethyl)piperidin-4-yl]-6-methoxyindoline], for which the values for the pKi in experiment [1] and in experiment [2] were < 6.70 and 7.88, respectively.

`CC(=O)NCc1ccc2c(c1)N(C1CCN(CCCOc3ccc(F)cc3)CC1)CC2` [Example 232, 1-[1-(4-fluorophenoxypropyl)piperidin-4-yl]-6-acetamidomethylindoline]: the pKi in experiment [1] is 7.32; in experiment [2], 7.42.

On to `COc1ccc2c(c1)N(C1CCN(CCc3ccc4ncsc4c3)CC1)CC2` [Example 233, 1-{1-[2-(6-benzothiazolyl)ethyl]-piperidin-4-yl}-6-methoxyindoline], for which the pKi in experiment [1] is < 6.70; in experiment [2], 9.22.

With `Fc1ccc(CCN2CCC(N3CCc4cc5scnc5cc43)CC2)cc1` [Example 234, 1-[1-(4-fluorophenethyl)piperidin-4-yl]thiazolo[5,4-f]indoline], the results for the pKi in experiment [1] and in experiment [2] were 8.48 and 8.96, respectively.
